Earlier results on two compounds are cited in patent publication US20090054381A1, “METHODS FOR TREATING RESPIRATORY DISORDERS” (NitroMed, Inc., priority 2005, published 2009).

Molecules are shown by their SMILES. Where a name gives a salt, the structure may show the parent alone.

Take `NNc1nncc2ccccc12` [Hydralazine hydrochloride, hydralazine hydrochloride]: the solubility in water result is given as “soluble”. Under “alcohol”, the solubility in alcohol entry is reported as “slightly soluble”. For the same compound, where the note is “ether”, the solubility in ether result is “very slightly soluble”.
As to `O=[N+]([O-])O[C@H]1CO[C@H]2[C@@H]1OC[C@H]2O[N+](=O)[O-]` [Diluted isosorbide dinitrate, 1,4,3,6-dianhydro-D-glucitol-2,5-dinitrate], the solubility in water result is recorded as “sparingly soluble”. The “solubility in organic solvents” value (organic solvents such as ethanol, ether and chloroform) was “freely soluble”.
